Test results from paper PMC6155683, “Pharmacokinetics Studies of 12 Alkaloids in Rat Plasma after Oral Administration of Zuojin and Fan-Zuojin Formulas” (Molecules : A Journal of Synthetic Chemistry and Natural …, 2017).
Like-named read-outs stand apart in the source and are kept apart here.

Key:
[1] = Dose modified systemic exposure (AUC0→∞/D, Cmax/D)
Method: Because the alkaloids content in ZJ and FZJ were no longer linear with the proportion of CR and EF after extraction process, AUC0→∞/D (ratio of AUC0→∞ and dose) and Cmax/D (ratio of Cmax and dose) were calculated to estimate the dose modified systemic exposure levels of the 12 alkaloids (Table 3). […] Physicochemical properties of these alkaloids had been calculated in silico to predict their human colon adenocarcinoma cell (Caco-2) permeability according to the three-property based rule (3PRule). Polar surface area (PSA), logarithm of the n-octanol/water distribution coefficient (LogD), molecular weight (MW), hydrogen bond donors (HBD), hydrogen bond acceptors (HBA), number of free rotatable bonds (NRB) and molar solubility (S) of the alkaloids were retrieved from SciFinder® (American Chemical Society).

[2] = PK study of the 12 alkaloids in rat plasma after oral administration of ZJ and FZJ extract (LC–MS/MS); type: in vivo; details: for AUC(0-t) / AUC(0-inf) / Cmax / MRT last / MRT inf / half-life / Tmax / Tsec (time of the secondary peak in C–T curve) / Csec (drug concentration of the secondary peak in C–T curve): rat plasma; for AUC(0-t) / AUC(0-inf) / Cmax / MRT last / MRT inf / half-life / Csec (drug concentration of the secondary peak in C–T curve): mean ± SD, n = 6; for AUC(0-t): read-out: AUC0→t; for AUC(0-inf): read-out: AUC0→∞; for Cmax: read-out: Cmax; for MRT last: read-out: MRT0→t (converted); for MRT inf: read-out: MRT0→∞ (converted); for half-life: read-out: t1/2; for Tmax: read-out: Tmax (converted)
Method: The time schedule included 15 time-points and six rats were sampled at each time-point. All the rats were orally administered with ZJ extract (suspended in water) at a dose of 3.38 g/kg body weight (dosages of the 12 alkaloids were shown in Table S4), equivalent to crude drug dose of 12 g/kg body weight. Blood samples were collected from the suborbital vein of the rats at 10, 20, 30, 60, 90, 120, 180, 240, 300, 330, 360, 480, 720, 1440, 2160 min after administration, and centrifuged immediately at 5000 rpm for 10 min. The plasma samples were stored at −20 °C until analysis.
Similarly, the time schedule of other rats included 15 time-points and six rats were orally administered with FZJ extract at a dose of 3.76 g/kg body weight (also equivalent to crude drug dose of 12 g/kg body weight, Table S4). Blood samples were collected and treated as mentioned above in the PK study of ZJ extract.
PK parameters of the 12 alkaloids including AUC0→t, AUC0→∞, mean retention time (MRT0→t, MRT0→∞), and elimination half-life (t1/2) were calculated with non-compartmental method by DAS 2.0 software (Mathematical Pharmacology Professional Committee of China, Shanghai, China). Maximum plasma drug concentration (Cmax) and time to reach the maximum plasma drug concentration (Tmax) were observed directly from the detected C–T data. The results were expressed as arithmetic mean ± standard deviation (SD).

[3] = Stability of analytes in rat plasma under storage conditions; type: physicochemical; details: n = 6; for Stability RE, 3 freeze-thaw cycles / Stability RE, 30 days at −20 °C: rat plasma; for Stability RE, processed samples' stability: room temperature 24 h
Method: The stabilities of analytes in plasma were assessed by analyzing the QC samples at three concentration levels under the following storage conditions: after three freeze (−20 °C)-thaw (room temperature) cycles; stored at −20 °C for 30 days, and comparing the results with those of freshly prepared QC samples. Stabilities of the processed samples at room temperature for 24 h were also assessed.

[4] = Two-compartment model fitting of C–T curves (DAS 2.0); type: in vivo, rat
Text: Double peaks in C–T curves were observed repeatedly in the PK study of ZJ and related TCM prescriptions, but explanations to the phenomenon were still ambiguous. Generally, possible reasons for the double peak phenomenon could be summarized as follows: (a) enterohepatic circulation; […] (c) irregular pattern of gastric emptying. […] Moreover, Tmax of the alkaloids after administration of ZJ extract were deferred from that of FZJ administration. […] It probably play a major role in the double peak phenomenon, since the GI motility can affect the drug absorption.

Structure (SMILES)	AUC0→∞/D (ratio of AUC0→∞ and dose) ([1]; oral ZJ extract)	Cmax/D (ratio of Cmax and dose) ([1]; oral ZJ extract)	AUC(0-t) ([2]; 3.38 g/kg, oral ZJ extract)	AUC(0-inf) ([2]; 3.38 g/kg, oral ZJ extract)	Cmax ([2]; 3.38 g/kg, oral ZJ extract)	MRT last ([2]; 3.38 g/kg, oral ZJ extract)	MRT inf ([2]; 3.38 g/kg, oral ZJ extract)	half-life ([2]; 3.38 g/kg, oral ZJ extract)	Tmax ([2]; 3.38 g/kg, oral ZJ extract)	Tsec (time of the secondary peak in C–T curve) ([2]; oral ZJ extract)	Csec (drug concentration of the secondary peak in C–T curve) ([2]; oral ZJ extract)	Stability RE, 3 freeze-thaw cycles ([3]; high QC concentration)	Stability RE, 30 days at −20 °C ([3]; high QC concentration)	Stability RE, 3 freeze-thaw cycles ([3]; low QC concentration)	Stability RE, 30 days at −20 °C ([3]; low QC concentration)	Stability RE, 3 freeze-thaw cycles ([3]; medium QC concentration)	Stability RE, 30 days at −20 °C ([3]; medium QC concentration)	Stability RE, processed samples' stability ([3]; high QC concentration)	Stability RE, processed samples' stability ([3]; low QC concentration)	Stability RE, processed samples' stability ([3]; medium QC concentration)	also measured
O=c1c2c3c(ccc2cc2n1CCc1cc4c(cc1-2)OCO4)OCO3 [8-oxocoptisine]	44.44	3.98	24.7 ± 3.9 ng·h/mL	27 ± 2.23 ng·h/mL	2.46 ± 1.17 ng/mL	10.1 h	13.5 h	8.93 ± 2.65 h	5 h	90 min	2.42 ± 0.89 ng/mL	−12.48%	−14.51%	6.73%	6.72%	7.48%	9.66%	10.05%	−3.71%	10.68%	plasma concentrations at most time points ([2]; oral FZJ extract): below the LLOQ
COc1cc2c(cc1OC)-c1cc3ccc4c(c3c(=O)n1CC2)OCO4 [8-oxoepiberberine]	97.25	13.92	14.3 ± 2.32 ng·h/mL	16.6 ± 3.22 ng·h/mL	2.38 ± 1.14 ng/mL	7.51 h	12.3 h	9.88 ± 4.57 h	1.5 h	300 min	1.85 ± 0.99 ng/mL	−8.93%	−2.71%	−14.18%	−13.41%	0.37%	0.36%	−7.73%	−7.14%	9.35%	plasma concentrations at most time points ([2]; oral FZJ extract): below the LLOQ
COc1cc2c(cc1OC)C(=O)NCC2 [corydaldine]	1688.21	369.29	45.1 ± 7.46 ng·h/mL	47.3 ± 7.36 ng·h/mL	10.3 ± 5.45 ng/mL	6.72 h	8.55 h	9.92 ± 2.06 h	1.5 h	300 min	9.03 ± 4.31 ng/mL	−2.29%	−2.68%	−1.98%	15.65%	3.89%	−11.86%	−10.59%	13.85%	−6.31%	AUC0→∞/D (ratio of AUC0→∞ and dose) ([1]; oral FZJ extract): 310.00; Cmax/D (ratio of Cmax and dose) ([1]; oral FZJ extract): 173.00; AUC(0-t) ([2]; 3.76 g/kg, oral FZJ extract): 2.86 ± 0.35 ng·h/mL; AUC(0-inf) ([2]; 3.76 g/kg, oral FZJ extract): 3.1 ± 0.46 ng·h/mL; Cmax ([2]; 3.76 g/kg, oral FZJ extract): 1.73 ± 0.58 ng/mL; MRT last ([2]; 3.76 g/kg, oral FZJ extract): 2.85 h; MRT inf ([2]; 3.76 g/kg, oral FZJ extract): 3.99 h; half-life ([2]; 3.76 g/kg, oral FZJ extract): 3.89 ± 1.29 h; Tmax ([2]; 3.76 g/kg, oral FZJ extract): 0.5 h; AIC (Akaike's information criterion method), two-compartment model fitting ([4]; oral FZJ extract): 3.947 ± 8.187; r^2 (correlation coefficient method), two-compartment model fitting ([4]; oral FZJ extract): 0.805 ± 0.066; AIC (Akaike's information criterion method), two-compartment model fitting ([4]; oral ZJ extract): 85.431 ± 9.718; r^2 (correlation coefficient method), two-compartment model fitting ([4]; oral ZJ extract): 0.243 ± 0.267
COc1cc2c(cc1OC)-c1cc3ccc4c(c3c[n+]1CC2)OCO4 [epiberberine]	0.62	0.12	68.5 ± 15.9 ng·h/mL	69.6 ± 15.5 ng·h/mL	13.7 ± 7.05 ng/mL	10.8 h	11.6 h	6.11 ± 1.7 h	5 h	90 min	5.51 ± 2.17 ng/mL	−12.84%	−6.2%	−3.64%	13.92%	−6.12%	−13.86%	−10.77%	2.78%	−8.85%	AUC0→∞/D (ratio of AUC0→∞ and dose) ([1]; oral FZJ extract): 1.91; Cmax/D (ratio of Cmax and dose) ([1]; oral FZJ extract): 0.81; AUC(0-t) ([2]; 3.76 g/kg, oral FZJ extract): 10.1 ± 1.09 ng·h/mL; AUC(0-inf) ([2]; 3.76 g/kg, oral FZJ extract): 11.4 ± 1.27 ng·h/mL; Cmax ([2]; 3.76 g/kg, oral FZJ extract): 4.82 ± 1.97 ng/mL; MRT last ([2]; 3.76 g/kg, oral FZJ extract): 3.89 h; MRT inf ([2]; 3.76 g/kg, oral FZJ extract): 5.26 h; half-life ([2]; 3.76 g/kg, oral FZJ extract): 3.92 ± 1.69 h; Tmax ([2]; 3.76 g/kg, oral FZJ extract): 3 h
CCCCC=CCCCCCCCc1cc(=O)c2ccccc2n1C [evocarpine]	35.17	14.42	55.6 ± 12.4 ng·h/mL	59 ± 13.3 ng·h/mL	24.2 ± 12.9 ng/mL	4.19 h	6.52 h	8.99 ± 6.39 h	1 h	240 min	7.36 ± 4.89 ng/mL	7.91%	6.12%	−19.16%	8.28%	3.44%	−14.67%	3.83%	14.05%	−14.47%	AUC0→∞/D (ratio of AUC0→∞ and dose) ([1]; oral FZJ extract): 13.16; Cmax/D (ratio of Cmax and dose) ([1]; oral FZJ extract): 2.74; AUC(0-t) ([2]; 3.76 g/kg, oral FZJ extract): 17.8 ± 3.99 ng·h/mL; AUC(0-inf) ([2]; 3.76 g/kg, oral FZJ extract): 19.6 ± 4.79 ng·h/mL; Cmax ([2]; 3.76 g/kg, oral FZJ extract): 4.07 ± 0.44 ng/mL; MRT last ([2]; 3.76 g/kg, oral FZJ extract): 7.04 h; MRT inf ([2]; 3.76 g/kg, oral FZJ extract): 9.3 h; half-life ([2]; 3.76 g/kg, oral FZJ extract): 6.91 ± 1 h; Tmax ([2]; 3.76 g/kg, oral FZJ extract): 0.5 h; AIC (Akaike's information criterion method), two-compartment model fitting ([4]; oral FZJ extract): 27.61 ± 10.527; r^2 (correlation coefficient method), two-compartment model fitting ([4]; oral FZJ extract): 0.740 ± 0.167; AIC (Akaike's information criterion method), two-compartment model fitting ([4]; oral ZJ extract): 78.232 ± 11.393; r^2 (correlation coefficient method), two-compartment model fitting ([4]; oral ZJ extract): 0.734 ± 0.201
O=C1NCCc2cc3c(cc21)OCO3 [noroxyhydrastinine]	1687.47	357.11	133 ± 18.5 ng·h/mL	140 ± 17.8 ng·h/mL	29.6 ± 15.2 ng/mL	8.82 h	11 h	10.7 ± 2.82 h	1.5 h	300 min	16.29 ± 8.38 ng/mL	−9.82%	−12.1%	−14.7%	−8.89%	11.57%	−2.75%	−12.23%	−8.14%	−0.19%	AUC0→∞/D (ratio of AUC0→∞ and dose) ([1]; oral FZJ extract): 268.50; Cmax/D (ratio of Cmax and dose) ([1]; oral FZJ extract): 158.50; AUC(0-t) ([2]; 3.76 g/kg, oral FZJ extract): 4.95 ± 0.65 ng·h/mL; AUC(0-inf) ([2]; 3.76 g/kg, oral FZJ extract): 5.37 ± 0.73 ng·h/mL; Cmax ([2]; 3.76 g/kg, oral FZJ extract): 3.17 ± 1 ng/mL; MRT last ([2]; 3.76 g/kg, oral FZJ extract): 3.03 h; MRT inf ([2]; 3.76 g/kg, oral FZJ extract): 5.25 h; half-life ([2]; 3.76 g/kg, oral FZJ extract): 4.06 ± 2.93 h; Tmax ([2]; 3.76 g/kg, oral FZJ extract): 0.5 h; AIC (Akaike's information criterion method), two-compartment model fitting ([4]; oral FZJ extract): 16.505 ± 12.486; r^2 (correlation coefficient method), two-compartment model fitting ([4]; oral FZJ extract): 0.802 ± 0.128; AIC (Akaike's information criterion method), two-compartment model fitting ([4]; oral ZJ extract): 118.137 ± 17.623; r^2 (correlation coefficient method), two-compartment model fitting ([4]; oral ZJ extract): 0.313 ± 0.350
